Results from article PMC6470523, “Introduction of Nonacidic Side Chains on 6-Ethylcholane Scaffolds in the Identification of Potent Bile Acid Receptor Agonists with Improved Pharmacokinetic Properties” (Molecules, 2019).

Test system: SHP mRNA in HepG2 cells
Assay: RT-PCR of FXR target gene SHP mRNA in HepG2 cells
Assay type: cell-based, human
Details: 1 and 10 µM, 18 h, vs CDCA 10 µM, Figure 2B
Protocol: HepG2 and GLUTag cells were plated at 1 × 10^6 cells/well in a six well plate. […] Total RNA was isolated from cells using the TRIzol reagent according to the manufacturer's specifications (Invitrogen, Carlsbad, CA, USA). One microgram of purified RNA was treated with DNase-I and reverse transcribed with Superscript II (Invitrogen, Carlsbad, CA, USA). For Real Time PCR, 10 ng template was dissolved in 25 μL containing 200 nmol/L of each primer and 12.5 μL of 2× SYBR FAST Universal ready mix (Invitrogen, Carlsbad, CA, USA). All reactions were performed in triplicate, and the thermal cycling conditions were as follows: 2 min at 95 °C, followed by 40 cycles of 95 °C for 20 s and 60 °C for 30 s in StepOnePlus (Applied Biosystems, Foster City, CA, USA). The relative mRNA expression was calculated accordingly to the Ct method. Primers were designed using the software PRIMER31 using published data obtained from the NCBI database. Forward and reverse primer sequences were the following: human GAPDH, [NT]; human SHP, [NT]; mouse GAPDH, [NT]; mouse pro-glucagon, [NT]

Structure (SMILES): CCC1C(O)C2C3CCC(C(C)CO)C3(C)CCC2C2(C)CCCCC12 (stereo not drawn) [compound 6, 6α-Ethyl-7α-hydroxy-23,24-dinor-5β-cholan-22-ol]
- SHP mRNA expression (in words): more potent than CDCA
